Laboratory results reported in US7915420B2, “Aryl piperidine amides” (Janssen Pharmaceutica NV, priority 2003, dated 2011).

Each compound was assayed against T1, human glycine transporter-2 (GlyT2) (Homo sapiens, UniProt Q9Y345) (assay: GlyT2 inhibitory activity: inhibition of [14C]-glycine uptake in COS-7 cells transfected with human GlyT2). Settings: Cos-7 cells stably transfected with human GlyT2; 20 μM 14C-glycine, 2 h at 37° C.
T1 construct: The entire coding region of the human GlyT2 cDNA was cloned into the mammalian expression vector pCINeo; expressed in transfected cells; host or cells: Cos-7 cells (African green monkey kidney), stably transfected, vector pCINeo, G418 selection
T1 sequence (Q9Y345 1-797): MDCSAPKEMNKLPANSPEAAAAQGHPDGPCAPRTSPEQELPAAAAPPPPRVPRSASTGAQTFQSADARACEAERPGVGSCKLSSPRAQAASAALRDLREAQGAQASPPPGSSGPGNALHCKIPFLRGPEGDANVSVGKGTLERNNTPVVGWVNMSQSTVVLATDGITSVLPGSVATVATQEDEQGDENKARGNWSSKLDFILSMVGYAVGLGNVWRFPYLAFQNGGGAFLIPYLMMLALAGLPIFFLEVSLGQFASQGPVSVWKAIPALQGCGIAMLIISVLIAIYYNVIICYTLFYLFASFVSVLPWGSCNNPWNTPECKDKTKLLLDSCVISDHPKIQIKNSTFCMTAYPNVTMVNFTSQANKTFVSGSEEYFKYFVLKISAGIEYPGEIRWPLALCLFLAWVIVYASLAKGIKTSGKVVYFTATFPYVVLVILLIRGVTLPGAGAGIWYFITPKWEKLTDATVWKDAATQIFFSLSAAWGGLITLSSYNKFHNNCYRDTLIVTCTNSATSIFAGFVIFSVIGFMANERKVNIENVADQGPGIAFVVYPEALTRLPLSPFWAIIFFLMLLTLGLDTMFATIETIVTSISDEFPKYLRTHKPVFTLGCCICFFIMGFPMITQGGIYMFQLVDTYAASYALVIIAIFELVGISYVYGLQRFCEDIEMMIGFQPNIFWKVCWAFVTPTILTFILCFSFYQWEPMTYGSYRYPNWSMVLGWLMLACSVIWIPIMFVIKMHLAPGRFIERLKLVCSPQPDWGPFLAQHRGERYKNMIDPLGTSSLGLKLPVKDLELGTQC
Type: cell-based
Method: GlyT2 antagonist activity of representative compounds of the invention was determined in accordance with the assay described in the Examples and by measuring the ability of compounds to inhibit the uptake of [^14C]-glycine in COS-7 cells transfected with the human glycine transporter-2 (GlyT2). The GlyT2 antagonist activities of these representative compounds are set forth hereinafter in Table 1.
Cos-7 cells (African green monkey, kidney) from American Type Culture Collection were grown in DMEM supplemented with 10% fetal bovine serum. The entire coding region of the human GlyT2 cDNA was cloned into the mammalian expression vector pCINeo, and then stably transfected into Cos-7 cells. Transfection was performed essentially as described by T. W. Lovenberg et al. (Mol. Pharmacol. 1999, 55:1101-1107). Cells are grown to 70-80% confluence, removed from the plate with trypsin, and pelleted in a clinical centrifuge. The pellet is resuspended in 400 μL complete medium and transferred to an electroporation cuvette with a 0.4 cm gap between the electrodes (Bio-Rad, 165-2088). One microgram of supercoiled GlyT2 cDNA is added to the cells, and the suspension is mixed. The voltage for the electroporation is set at 0.25 kV, and the capacitance is set at 960 μF. After electroporation, the cuvette contents are diluted to 10 mL with complete medium, and 0.5 mL, 1.0 mL, 2.0 mL and remainder (−6.5 mL) portions are plated onto four 10-cm dishes. The cells are incubated 24 h before adding 600 μg/mL G418. Colonies that survive selection are isolated and tested for GlyT2 expression.
The day before the assay, the GlyT2 expressing cells were plated into 96-well scintillating microplates (Amersham, RPNQ 0160) at a density of approximately 20,000 cells per well. Cells were grown overnight at 37° C. in 5% CO2 and then washed once with 37° C. HEPES buffered saline (HBS: 150 mM NaCl, 20 mM HEPES, 1 mM CaCl2, 10 mM glucose, 5 mM KCl, 1 mM MgCl2; pH 7.4). Eighty microliters of 37° C. HBS was subsequently added to each well. Test solutions of GlyT2 inhibitors were prepared in HBS from DMSO stock solutions, and 5 μL of test solution was added to each test well. Total transport and non-specific background were determined by adding 5 μL HBS or 5 μL 2 M glycine, respectively, to the appropriate control wells. Plates were then left at room temperature for 5 min before the addition of 20 μL of 100 μM ^14C-glycine (NEN, NEC 048H) to each well for a final concentration of 20 μM. Plates were incubated for 2 h at 37° C. with 5% CO2. After 2 h the reaction mixtures were removed by aspiration, and the plates were washed once with ice-cold HBS. Plates were sealed with TopSeal (Packard, 6005185) and counted on a Packard TopCount® scintillation counter.

IC50 | Compound
20 µM | O=C(c1cccc(CNCCNc2ccccc2O)c1)N1CCCCC1 [Example 4, (3-{[2-(2-Hydroxy-phenylamino)-ethylamino]-methyl}-phenyl)-piperidin-1-yl-methanone]
11 µM | CC(C)Oc1ccccc1NCCN(C)Cc1cccc(C(=O)N2CCCCC2)c1 [Example 27, [3-({[2-(2-Isopropoxy-phenylamino)-ethyl]-methyl-amino}-methyl)-phenyl]-piperidinyl-methanone]
1 µM | O=C(c1cccc(CNCCNc2ccccc2Br)c1)N1CCCCC1 [Example 17, (3-{[2-(2-Bromo-phenylamino)-ethylamino]-methyl}-phenyl)-piperidin-1-yl-methanone]
2.5 µM | CC(C)c1ccccc1NCCNCc1cccc(C(=O)N2CCCCC2)c1 [Example 21, (3-{[2-(2-Isopropyl-phenylamino)-ethylamino]-methyl}-phenyl)-piperidin-1-yl-methanone]
0.4 µM | CC(C)Oc1ccccc1OCCNCc1cccc(C(=O)N2CCCCC2)c1 [Example 24, (3-{[2-(2-Isopropoxy-phenoxy)-ethylamino]-methyl}-phenyl)-piperidin-1-yl-methanone]
3.1 µM | CS(=O)(=O)Nc1ccccc1NCCNCc1cccc(C(=O)N2CCCCC2)c1 [Example 14, N-(2-{2-[3-(Piperidine-1-carbonyl)-benzylamino]-ethylamino}-phenyl)methanesulfonamide]
> 10 µM | CC(C)Oc1ccccc1NCCNCc1cccc(C(=O)N2CCC(O)CC2)c1 [Example 41, (4-Hydroxy-piperidin-1-yl)-(3-{[2-(2-isopropoxy-phenylamino)-ethylamino]-methyl}-phenyl)-methanone]
3 µM | CC(C)Oc1ccccc1NCCNCc1cccc(C(=O)N2CCCC2)c1 [Example 38, (3-{[2-(2-Isopropoxy-phenylamino)-ethylamino]-methyl}-phenyl)-pyrrolidin-1-yl-methanone]
3.1 µM | CC(C)Nc1ccccc1NCCNCc1cc(C(=O)N2CCCCC2)cs1 [Example 36, (5-{[2-(2-Isopropylamino-phenylamino)-ethylamino]-methyl}-thiophen-3-yl)-piperidinyl-methanone]
3.1 µM | O=C(c1cccc(CNCCNc2cccc(Br)c2)c1)N1CCCCC1 [Example 18, (3-{[2-(3-Bromo-phenylamino)-ethylamino]-methyl}-phenyl)-piperidin-1-yl-methanone]
0.955 µM | O=C(c1cccc(CNCCNc2ccccc2-c2ccsc2)c1)N1CCCCC1 [Example 23, Piperidin-1-yl-(3-{[2-(2-thiophen-3-yl-phenylamino)-ethylamino]-methyl}-phenyl)-methanone]

The next lines start with the compound.

Compound | IC50
CC(C)Oc1cccc(N(C)CCN(C)Cc2cccc(C(=O)N3CCCCC3)c2)c1 [Example 31, {3-[({2-[(3-Isopropoxy-phenyl)-methyl-amino]-ethyl}-methyl-amino)-methyl]-phenyl}-piperidin-1-yl-methanone] | 1.6 µM
CC(C)Oc1cccc(NCCNCc2cccc(C(=O)N3CCCCC3)c2)c1 [Example 10, (3-{[2-(3-Isopropoxy-phenylamino)-ethylamino]-methyl}-phenyl)-piperidin-1-yl-methanone] | 1 µM
CC(C)Nc1ccccc1NCCNCc1cccc(C(=O)N2CCCCC2)c1 [Example 13, (3-{[2-(2-Isopropylamino-phenylamino)-ethylamino]-methyl}-phenyl)-piperidin-1-yl-methanone] | 0.55 µM
CC(C)Oc1ccccc1CCCNCc1cccc(C(=O)N2CCCCC2)c1 [Example 33, (3-{[3-(2-Isopropoxy-phenyl)-propylamino]-methyl}-phenyl)-piperidin-1-yl-methanone] | 4 µM
O=C(Nc1ccccc1)Nc1ccccc1NCCNCc1cccc(C(=O)N2CCCCC2)c1 [Example 15, 1-Phenyl-3-(2-{2-[3-(piperidine-1-carbonyl)-benzylamino]-ethylamino}-phenyl)-urea] | > 10 µM
Nc1ccccc1NCCNCc1cc(C(=O)N2CCCCC2)cs1 [Example 35, (5-{[2-(2-Amino-phenylamino)-ethylamino]-methyl}-thiophen-3-yl)-piperidin-1-yl-methanone] | > 10 µM
COc1cccc(NCCNCc2cccc(C(=O)N3CCCCC3)c2)c1 [Example 9, (3-{[2-(3-Methoxy-phenylamino)-ethylamino]-methyl}-phenyl)-piperidin-1-yl-methanone] | 0.8 µM
Nc1ccccc1NCCNCc1cccc(C(=O)N2CCCCC2)c1 [Example 12, (3-{[2-(2-Amino-phenylamino)-ethylamino]-methyl}-phenyl)-piperidin-1-yl-methanone] | > 10 µM
CC(C)Oc1ccccc1N(C)CCNCc1cccc(C(=O)N2CCCCC2)c1 [Example 28, [3-({2-[(2-Isopropoxy-phenyl)-methyl-amino]-ethylamino}-methyl)-phenyl]-piperidinyl-methanone] | 3.5 µM
CC(C)Oc1ccccc1NCCNCc1cccc(C(=O)N2CCCCCC2)c1 [Example 39, Azepan-1-yl-(3-{[2-(2-isopropoxy-phenylamino)-ethylamino]-methyl}-phenyl)methanone.] | 1.8 µM
